# How the values were obtained:
# Strep/HA SLC9A9 = molecular target: T1, Strep/HA SLC9A9 (Homo sapiens, UniProt Q8IVB4); experiment: Selectivity across SLC9 family: degradation of exogenous Strep/HA SLC9A9; assay type: cell-based; details: HAP1; 250 or 750 nM; 16 hours
# T1 construct: expressed in transfected cells; host or cells: HAP1 (lentiviral, pRRL Strep-HA)
# Procedure: (§1) (E) Selectivity of d9A1-2 was tested across HAP1 cell lines expressing Strep/HASLC9A1, 9A4, 9A5, 9A8, 9A2, 9B2, 9A6, 9A9, and 9A3. Cells were treated with varying concentrations of d9A1-2 for 16 hours, after which degradation of the exogenous SLCs was monitored.
# (§2) SLC1A5, SLC2A1, SLC2A3, SLC16A1, SLC38A1, SLC38A2 were obtained as gateway-compatible pENTR/pDONR vectors from the Harvard PlasmID Repository. SLC39A7 was obtained from Dharmacon, GE Healthcare. The following vectors were synthesized by Genescript: SLC4A4, SLC7A3, SLC38A9, SLC25A1, SLC9A1, SLC9A2, SLC9A3, SLC9A4, SLC9A5, SLC9A6, SLC9A7, SLC9A8, and SLC9B2. SLC30A9, SLC33A1, SLC35B2, SLC25A26, and MTCH2 were a gift from the RESOLUTE consortium. cDNAs were transferred into gateway-compatible lentiviral expression vectors: pLX305 dTAG vectors (Addgene #91797/8) or pRRL Strep-HA (described previously43, EF1a promotor driven expression) using LR recombination (ThermoFisher Scientific). […]
# (§3) For immunoblotting, whole cell extracts were prepared using RIPA lysis buffer (25 mM Tris/HCl pH 7.6, 150 mM NaCl, 1% NP-40, 1% sodium deoxycholate, 0.1% SDS, EDTA-free protease inhibitor (Roche) and phosphatase inhibitors 2+3 (Sigma- Aldrich)). […] Protein extracts were quantified and normalized using the BCA assay (Thermo Scientific). […]
# Strep/HA SLC9B2 = molecular target: T2, Strep/HA SLC9B2 (Homo sapiens, UniProt Q86UD5); experiment: Selectivity across SLC9 family: degradation of exogenous Strep/HA SLC9B2; assay type: cell-based; details: HAP1; 250 or 750 nM; 16 hours
# T2 construct: expressed in transfected cells; host or cells: HAP1 (lentiviral, pRRL Strep-HA; cDNA synthesized by Genescript)
# Procedure: as §1, §2, §3
# [1] = system: Peripheral blood mononuclear cells (PBMCs); experiment: Cell viability assay (CellTiter-Glo), single dose, FIG. 10; assay type: cell-based, human; details: patient samples; 75 nM d9A1-2 vs 7.5 µM EIPA; 72 hours
# Procedure: FIG. 10: Viability assay Relative viability of Peripheral blood mononuclear cells (PBMCs) after single-dose treatment with the d9A1-2 molecule or ethyl-isopropyl amiloride (EIPA). PBMCs were isolated from healthy donors and patients with acute myeloid leukemia, multiple myeloma, B cell lymphoma and Hodgkin’s lymphoma, chronic lymphocytic leukeumia. Viability was assayed using the CellTiter-Glo assay, 72 hours post treatment.
# Peripheral blood mononuclear cells (PBMCs) were isolated using Lymphoprep (Stem Cell Technologies) from healthy donors and patients with acute myeloid leukemia, multiple myeloma, B cell lymphoma, Hodgkin’s lymphoma, chronic lymphocytic leukeumia. For comparison of different samples, compounds were transferred on black 384-well plates using an acoustic liquid handler (Echo, Labcyte).
# Cells were seeded in these plates at densities of 20,000 cells per well in RPMI media (Gibco), supplemented with 10% fetal calf serum (Gibco). Viability was measured after 72 hours using the CellTiter-Glo assay (Promega) on a plate reader (SpectraMax i3x, Molecular Probes). All measurements were done in technical quadruplicates. Toxicity achieved by treatment with d9A1-2 or ethyl-isopropyl amiloride (EIPA) (Sigma) was normalized to the reference controls. Dose response fitting curves were obtained and plotted using GraphPad Prism V8. Data is presented as mean +/- SD.
# dTAG-HA SLC39A7 = molecular target: T3, dTAG-HA SLC39A7 (Homo sapiens, UniProt Q92504+Q96SW2); experiment: Targeted degradation of dTAG-tagged SLC39A7 (western blot); assay type: cell-based; details: HAP1, 0.5 µM, 24, 48 or 72 hours
# T3 construct: expressed in transfected cells
# Procedure: (§4) (C)HAP1 cells expressing dTAG-HA SLC1A5, 2A3, 30A9, 35B2, MTCH2, and 33A1 were treated for 24 hours with 0.5 µM of dTAG7 or dTAG13, as indicated. HAP1 cells expressing dTAG-HA SLC2A1 and 16A1 were treated for 24 hrs with 0.5 µM of dTAG7. HAP1 cell lines expressing dTAG-HA SLC39A7, dTAG-HA SLC4A4, and SLC7A3-dTAG-HA were treated for 48 hrs with 0.5 µM of dTAG13.
# (§5) SLC1A5, SLC2A1, SLC2A3, SLC16A1, SLC38A1, SLC38A2 were obtained as gateway-compatible pENTR/pDONR vectors from the Harvard PlasmID Repository. SLC39A7 was obtained from Dharmacon, GE Healthcare. The following vectors were synthesized by Genescript: SLC4A4, SLC7A3, SLC38A9, SLC25A1, SLC9A1, SLC9A2, SLC9A3, SLC9A4, SLC9A5, SLC9A6, SLC9A7, SLC9A8, and SLC9B2. […]
# as §3
# (§6) SLCs were ectopically expressed as fusions to a mutated FKBP domain, also known as the dTAG system. […]
# dTAG-HA SLC33A1 = molecular target: T4, dTAG-HA SLC33A1 (Homo sapiens, UniProt O00400+Q96SW2); experiment: Targeted degradation of dTAG-tagged SLC33A1 (western blot); assay type: cell-based; details: HAP1, 0.5 µM
# T4 construct: expressed in transfected cells
# Procedure: as §4, §5, §3, §6
# T3 sequence (Q92504 with tags, fused parts or gaps): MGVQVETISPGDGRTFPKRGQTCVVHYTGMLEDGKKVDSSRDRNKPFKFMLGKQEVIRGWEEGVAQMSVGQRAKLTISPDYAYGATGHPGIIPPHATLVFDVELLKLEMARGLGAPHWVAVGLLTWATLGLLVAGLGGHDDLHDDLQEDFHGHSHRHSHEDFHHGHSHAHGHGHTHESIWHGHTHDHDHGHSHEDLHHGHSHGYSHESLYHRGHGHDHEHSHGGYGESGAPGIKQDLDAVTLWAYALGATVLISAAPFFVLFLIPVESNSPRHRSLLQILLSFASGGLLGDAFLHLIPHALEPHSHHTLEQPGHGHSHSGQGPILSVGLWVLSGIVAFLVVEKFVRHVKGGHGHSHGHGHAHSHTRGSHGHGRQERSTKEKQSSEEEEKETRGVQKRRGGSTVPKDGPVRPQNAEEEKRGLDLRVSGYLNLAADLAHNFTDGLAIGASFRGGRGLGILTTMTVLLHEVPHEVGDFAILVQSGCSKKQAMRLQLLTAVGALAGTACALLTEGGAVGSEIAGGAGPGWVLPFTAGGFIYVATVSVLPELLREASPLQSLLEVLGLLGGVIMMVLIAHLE
# T3 sequence (Q96SW2 whole entry): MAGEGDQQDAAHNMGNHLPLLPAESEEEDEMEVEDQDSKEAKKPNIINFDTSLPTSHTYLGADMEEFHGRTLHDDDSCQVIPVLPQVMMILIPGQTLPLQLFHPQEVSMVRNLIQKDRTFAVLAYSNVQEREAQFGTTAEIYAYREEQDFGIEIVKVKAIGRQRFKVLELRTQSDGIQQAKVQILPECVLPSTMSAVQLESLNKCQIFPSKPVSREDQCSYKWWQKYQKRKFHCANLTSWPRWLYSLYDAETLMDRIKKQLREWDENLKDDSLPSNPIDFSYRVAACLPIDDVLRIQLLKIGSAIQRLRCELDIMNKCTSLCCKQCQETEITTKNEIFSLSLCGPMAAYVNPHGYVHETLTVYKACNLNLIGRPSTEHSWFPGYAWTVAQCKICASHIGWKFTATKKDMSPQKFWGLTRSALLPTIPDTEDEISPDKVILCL
# T3 sequence (Q16531 whole entry partner): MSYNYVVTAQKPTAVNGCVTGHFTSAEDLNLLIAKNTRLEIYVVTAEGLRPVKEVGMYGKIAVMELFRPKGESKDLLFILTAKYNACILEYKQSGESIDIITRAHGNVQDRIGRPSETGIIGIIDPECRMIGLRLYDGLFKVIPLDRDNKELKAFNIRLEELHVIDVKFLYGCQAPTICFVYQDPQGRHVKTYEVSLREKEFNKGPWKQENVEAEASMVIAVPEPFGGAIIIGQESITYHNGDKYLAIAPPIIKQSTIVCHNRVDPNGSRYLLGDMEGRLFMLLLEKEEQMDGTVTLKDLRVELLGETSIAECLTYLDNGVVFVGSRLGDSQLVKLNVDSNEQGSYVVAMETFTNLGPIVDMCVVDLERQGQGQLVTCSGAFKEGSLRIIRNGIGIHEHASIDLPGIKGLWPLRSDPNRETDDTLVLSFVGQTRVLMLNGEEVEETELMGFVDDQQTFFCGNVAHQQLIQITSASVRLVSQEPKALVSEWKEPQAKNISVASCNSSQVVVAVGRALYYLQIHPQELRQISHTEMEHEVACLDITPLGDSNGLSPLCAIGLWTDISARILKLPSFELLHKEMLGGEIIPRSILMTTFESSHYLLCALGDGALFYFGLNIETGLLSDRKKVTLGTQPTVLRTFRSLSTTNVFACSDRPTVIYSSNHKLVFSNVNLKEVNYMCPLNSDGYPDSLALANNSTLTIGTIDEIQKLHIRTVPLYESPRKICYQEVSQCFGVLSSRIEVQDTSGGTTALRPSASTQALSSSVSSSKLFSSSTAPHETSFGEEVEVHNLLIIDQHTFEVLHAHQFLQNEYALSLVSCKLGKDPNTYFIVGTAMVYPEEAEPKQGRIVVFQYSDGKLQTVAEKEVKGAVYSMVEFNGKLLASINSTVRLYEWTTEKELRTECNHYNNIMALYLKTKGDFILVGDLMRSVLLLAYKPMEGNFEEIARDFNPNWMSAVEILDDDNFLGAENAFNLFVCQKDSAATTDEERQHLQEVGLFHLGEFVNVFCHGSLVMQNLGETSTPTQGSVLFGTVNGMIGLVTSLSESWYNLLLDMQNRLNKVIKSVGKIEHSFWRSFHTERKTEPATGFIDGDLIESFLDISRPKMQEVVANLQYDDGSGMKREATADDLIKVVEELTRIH
# T2 sequence (Q86UD5 whole entry): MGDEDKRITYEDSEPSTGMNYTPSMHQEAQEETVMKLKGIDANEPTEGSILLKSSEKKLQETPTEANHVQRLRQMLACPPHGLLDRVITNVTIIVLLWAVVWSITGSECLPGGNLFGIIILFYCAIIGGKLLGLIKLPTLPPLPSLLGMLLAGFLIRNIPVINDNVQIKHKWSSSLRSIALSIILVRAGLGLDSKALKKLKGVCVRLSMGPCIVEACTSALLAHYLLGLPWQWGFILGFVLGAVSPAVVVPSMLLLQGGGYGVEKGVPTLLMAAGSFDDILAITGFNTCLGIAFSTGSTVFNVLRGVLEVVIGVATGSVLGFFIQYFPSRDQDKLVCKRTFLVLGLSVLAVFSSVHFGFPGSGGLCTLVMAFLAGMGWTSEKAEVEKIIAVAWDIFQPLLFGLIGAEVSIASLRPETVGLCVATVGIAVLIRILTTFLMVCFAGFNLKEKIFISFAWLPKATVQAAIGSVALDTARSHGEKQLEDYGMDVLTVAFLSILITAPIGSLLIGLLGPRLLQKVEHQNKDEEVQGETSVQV
# T4 sequence (O00400 with tags, fused parts or gaps): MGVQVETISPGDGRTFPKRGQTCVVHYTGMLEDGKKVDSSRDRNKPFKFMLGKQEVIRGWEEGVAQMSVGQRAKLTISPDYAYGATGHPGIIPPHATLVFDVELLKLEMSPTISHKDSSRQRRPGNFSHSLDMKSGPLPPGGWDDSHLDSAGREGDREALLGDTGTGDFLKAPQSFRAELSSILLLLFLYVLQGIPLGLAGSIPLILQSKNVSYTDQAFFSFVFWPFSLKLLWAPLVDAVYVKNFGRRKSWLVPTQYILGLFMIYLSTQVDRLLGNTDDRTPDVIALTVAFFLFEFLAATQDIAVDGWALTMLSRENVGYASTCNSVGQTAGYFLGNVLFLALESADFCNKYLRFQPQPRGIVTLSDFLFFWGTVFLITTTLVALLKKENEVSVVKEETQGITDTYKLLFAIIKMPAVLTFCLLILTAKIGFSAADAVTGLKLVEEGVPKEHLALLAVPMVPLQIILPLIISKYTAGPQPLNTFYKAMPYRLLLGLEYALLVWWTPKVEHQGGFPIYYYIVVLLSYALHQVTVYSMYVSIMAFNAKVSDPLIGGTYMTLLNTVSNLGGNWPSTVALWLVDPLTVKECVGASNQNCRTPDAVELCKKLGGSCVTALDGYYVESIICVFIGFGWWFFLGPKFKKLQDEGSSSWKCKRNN
# T4 sequence (Q96SW2 whole entry): as the sequence (Q96SW2 whole entry) above
# T4 sequence (Q16531 whole entry partner): as the sequence (Q16531 whole entry partner) above
# T1 sequence (Q8IVB4 whole entry): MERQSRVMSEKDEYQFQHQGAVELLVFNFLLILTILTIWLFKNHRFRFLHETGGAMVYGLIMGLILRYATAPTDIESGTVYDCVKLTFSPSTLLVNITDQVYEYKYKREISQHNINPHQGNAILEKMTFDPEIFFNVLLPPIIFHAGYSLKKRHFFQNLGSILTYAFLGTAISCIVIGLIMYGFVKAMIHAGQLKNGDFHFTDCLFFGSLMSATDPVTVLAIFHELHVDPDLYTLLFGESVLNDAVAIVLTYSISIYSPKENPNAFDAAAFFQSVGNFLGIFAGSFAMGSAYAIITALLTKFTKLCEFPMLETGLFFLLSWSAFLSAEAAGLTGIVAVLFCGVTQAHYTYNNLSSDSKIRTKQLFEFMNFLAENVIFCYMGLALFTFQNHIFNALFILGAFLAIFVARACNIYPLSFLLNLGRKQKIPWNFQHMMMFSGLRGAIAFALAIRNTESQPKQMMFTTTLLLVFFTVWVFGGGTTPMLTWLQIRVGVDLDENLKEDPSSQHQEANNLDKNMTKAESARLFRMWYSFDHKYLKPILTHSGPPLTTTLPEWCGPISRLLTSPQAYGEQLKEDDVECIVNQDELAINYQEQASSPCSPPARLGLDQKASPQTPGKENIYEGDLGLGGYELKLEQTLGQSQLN
structure (smiles),measurement,setting,value
Cc1cc(-c2ccc(C(=O)NCCOCCOCCOCCOCCNc3cccc4c3C(=O)N(C3CCC(=O)NC3=O)C4=O)cc2N2CCC(c3[nH]cnc3C)CC2)ccc1F (centres unmarked) [d9A1-2],abundance of exogenous SLC9A9,Strep/HA SLC9A9,not significantly affected
same,abundance of exogenous SLC9B2,Strep/HA SLC9B2,not significantly affected
same,toxicity (relative viability) in patient PBMCs compared with EIPA,[1],considerably more toxic than 7.5 µM EIPA
CC[C@H](C(=O)N1CCCC[C@H]1C(=O)O[C@H](CCc1ccc(OC)c(OC)c1)c1ccccc1OCC(=O)NCCCOCCOCCOCCCNC(=O)COc1cccc2c1C(=O)N(C1CCC(=O)NC1=O)C2=O)c1cc(OC)c(OC)c(OC)c1 (some centres unmarked) [dTAG7],reversibility of degradation of the target SLC,dTAG-HA SLC39A7,reversible degradation
same,initiation of degradation (time course),dTAG-HA SLC33A1,≤ 6 h
